Source: patent US9611252B2 (LifeSci Pharmaceuticals, Inc., priority 2013, dated 2017)

The compounds below were run against human Plasma Kallikrein (Homo sapiens (Human), UniProt P03952) (assay: In vitro enzyme inhibition of human plasma kallikrein (PFR-AMC cleavage)). Settings: not given.
Type: biochemical
Experimental: The ability of the compounds disclosed herein to inhibit human plasma kallikrein activity was quantified according to the procedures below.
A 10 mM solution of the test compound was made in DMSO. […] A control tube containing only DMSO is included. 16 μL of each compound test solution was combined with 384 μL of assay buffer (50 mM Tris-HCl pH 7.5, 150 mM NaCl, 0.01% Triton X-100) to yield a “4× test compound buffer stock”.
These solutions are hereby referred to as 4×hPK and 2×PFR-AMC, respectively.
50 μL was removed from this mixture and placed into duplicate wells on a Microfluor 1Black U-bottom microtiter plate (Thermo Scientific). This plate was incubated for 5 minutes at 37° C. To each well, 50 μL of pre-warmed 2×PFR-AMC was added to start the enzymatic reaction. Cleavage of PFR-AMC was monitored in a Biotek Synergy H4 reader set at 37° C. Readings are taken every 43 seconds for 1 hour. […] The IC50 is calculated using the Gen5 (Biotek Instruments).
The ability of the compounds in Table 3 to inhibit human plasma kallikrein activity was determined.

Sequence of human Plasma Kallikrein (P03952 20-638): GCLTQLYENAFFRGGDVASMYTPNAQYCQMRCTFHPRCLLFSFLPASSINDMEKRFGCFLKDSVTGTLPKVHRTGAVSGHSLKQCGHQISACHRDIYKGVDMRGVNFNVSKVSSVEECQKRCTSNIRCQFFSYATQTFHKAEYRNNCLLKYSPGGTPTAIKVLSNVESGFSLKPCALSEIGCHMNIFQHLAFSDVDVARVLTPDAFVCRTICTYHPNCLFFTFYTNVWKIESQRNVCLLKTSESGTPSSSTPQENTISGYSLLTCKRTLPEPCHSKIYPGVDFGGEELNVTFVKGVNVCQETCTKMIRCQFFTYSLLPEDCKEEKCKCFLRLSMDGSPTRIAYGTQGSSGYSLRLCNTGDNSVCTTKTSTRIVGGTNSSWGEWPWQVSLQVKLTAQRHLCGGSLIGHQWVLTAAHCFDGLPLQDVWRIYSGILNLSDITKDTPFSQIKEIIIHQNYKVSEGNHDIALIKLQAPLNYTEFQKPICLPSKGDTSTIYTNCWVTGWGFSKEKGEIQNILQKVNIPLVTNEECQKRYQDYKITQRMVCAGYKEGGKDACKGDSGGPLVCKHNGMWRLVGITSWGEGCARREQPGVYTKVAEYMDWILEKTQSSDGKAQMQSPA

Q: For `Cc1cc(N)ncc1CNC(=O)c1ccnc(Cc2cc(C#N)c3ncc(Cl)cc3c2)c1` [Example 53, N-((6-amino-4-methylpyridin-3-yl)methyl)-2-((3-chloro-8-cyanoquinolin-6-yl)methyl)isonicotinamide], which IC50 is on record?
A: Its IC50 is 0.1 to 1 µM.

Same assay, conditions: human plasma kallikrein, Pro-Phe-Arg-AMC substrate, 37° C.; read-out: hPK IC50

Q: How did the IC50 turn out when `Cc1cc(N)nc(C)c1CNC(=O)c1ccnc(Cn2ccc3cc(Cl)ccc3c2=O)c1` [Example 23, N-((6-amino-2,4-dimethylpyridin-3-yl)methyl)-2-((6-chloro-1-oxoisoquinolin-2(1H)-yl)methyl)isonicotinamide] was run?
A: The IC50 was 1 to 10 µM.

Q: `Cc1cc(N)nc(C)c1CNC(=O)c1ccnc(Cc2ccc3[nH]cc(Cl)c3c2)c1` [Example 24, N-((6-amino-2,4-dimethylpyridin-3-yl)methyl)-2-((3-chloro-1H-indol-5-yl)methyl)isonicotinamide] was tested. Which IC50 did it give?
A: Its IC50 is 0.1 to 1 µM.

Q: For `Cc1cc(N)nc(C)c1CNC(=O)c1ccnc(Cc2ccc3[nH]cc(C)c3c2)c1` [Example 25, N-((6-amino-2,4-dimethylpyridin-3-yl)methyl)-2-((3-methyl-1H-indol-5-yl)methyl)isonicotinamide], which IC50 is on record?
A: The IC50 was 0.1 to 1 µM.

Q: For `Cc1nc(N)c(C#N)cc1CNC(=O)c1ccnc(Cc2ccc3ncc(Cl)cc3c2)c1` [Example 26, N-((6-amino-5-cyano-2-methylpyridin-3-yl)methyl)-2-((3-chloroquinolin-6-yl)methyl)isonicotinamide], which IC50 is on record?
A: The IC50 was 1 to 10 µM.

Q: How did the IC50 turn out when `Cc1nc(N)c(C(N)=O)cc1CNC(=O)c1ccnc(Cc2ccc3ncc(Cl)cc3c2)c1` [Example 27, 2-amino-5-((2-((3-chloroquinolin-6-yl)methyl)isonicotinamido)methyl)-6-methylnicotinamide] was run?
A: The IC50 was > 10 µM.

Q: `Cc1nc(N)c(Cl)cc1CNC(=O)c1ccnc(Cc2ccc3ncc(Cl)cc3c2)c1` [Example 28, N-((6-amino-5-chloro-2-methylpyridin-3-yl)methyl)-2-((3-chloroquinolin-6-yl)methyl)isonicotinamide] was tested. Which IC50 did it give?
A: Its IC50 is 1 to 10 µM.

Q: With `Cc1cc(N)ncc1CNC(=O)c1ccnc(Cc2ccc3ncc(Cl)cc3c2)c1` [Example 29, N-((6-amino-4-methylpyridin-3-yl)methyl)-2-((3-chloroquinolin-6-yl)methyl)isonicotinamide] as the compound, how does the IC50 read?
A: Its IC50 is < 0.1 µM.

Q: Which IC50 does the source give for `Nc1ccc(CNC(=O)c2ccnc(Cc3ccc4ncc(Cl)cc4c3)c2)c(C(F)(F)F)n1` [Example 30, N-((6-amino-2-(trifluoromethyl)pyridin-3-yl)methyl)-2-((3-chloroquinolin-6-yl)methyl)isonicotinamide] here?
A: Its IC50 is > 10 µM.

Q: For `O=C(NCc1cc2cn[nH]c2cc1F)c1ccnc(Cc2ccc3ncc(Cl)cc3c2)c1` [Example 32, 2-(3-chloro-quinolin-6-ylmethyl)-N-(6-fluoro-1H-indazol-5-ylmethyl)-isonicotinamide], which IC50 is on record?
A: Its IC50 is 1 to 10 µM.

Q: Which IC50 does the source give for `Nc1noc2cc(CNC(=O)c3ccnc(Cc4ccc5ncc(Cl)cc5c4)c3)ccc12` [Example 36, N-((3-aminobenzo[d]isoxazol-6-yl)methyl)-2-((3-chloroquinolin-6-yl)methyl)isonicotinamide] here?
A: The IC50 was 1 to 10 µM.

Q: For `O=C(NCc1n[nH]c2ccc(Cl)cc12)c1ccnc(Cc2ccc3ncc(Cl)cc3c2)c1` [Example 37, N-(5-chloro-1H-indazol-3-ylmethyl)-2-(3-chloro-quinolin-6-ylmethyl)-isonicotinamide], which IC50 is on record?
A: The IC50 was < 0.1 µM.

Q: With `O=C(NCc1cc2cc[nH]c2cc1F)c1ccnc(Cc2ccc3ncc(Cl)cc3c2)c1` [Example 41, 2-(3-chloro-quinolin-6-ylmethyl)-N-(6-fluoro-1H-indol-5-ylmethyl)-isonicotinamide] as the compound, how does the IC50 read?
A: Its IC50 is < 0.1 µM.

Q: `CNc1ccc(CNC(=O)c2ccnc(Cc3ccc4ncc(Cl)cc4c3)c2)c(C)n1` [Example 42, 2-((3-chloroquinolin-6-yl)methyl)-N-((2-methyl-6-(methylamino)pyridin-3-yl)methyl)isonicotinamide] was tested. Which IC50 did it give?
A: The IC50 was 0.1 to 1 µM.

Q: `Nc1ccc(CNC(=O)c2ccnc(Cc3ccc4ncc(Cl)cc4c3)c2)c(C2CC2)n1` [Example 43, N-((6-amino-2-cyclopropylpyridin-3-yl)methyl)-2-((3-chloroquinolin-6-yl)methyl)isonicotinamide] was tested. Which IC50 did it give?
A: Its IC50 is 0.1 to 1 µM.

Q: With `Cc1nc(N(C)C)ccc1CNC(=O)c1ccnc(Cc2ccc3ncc(Cl)cc3c2)c1` [Example 44, 2-((3-chloroquinolin-6-yl)methyl)-N-((6-(dimethylamino)-2-methylpyridin-3-yl)methyl)isonicotinamide] as the compound, how does the IC50 read?
A: Its IC50 is > 10 µM.

Q: How did the IC50 turn out when `NCc1ccc2cc(Cc3cc(C(=O)NCc4cc5c(Cl)c[nH]c5cc4F)ccn3)ccc2n1` [Example 45, 2-((2-(aminomethyl)quinolin-6-yl)methyl)-N-((3-chloro-6-fluoro-1H-indol-5-yl)methyl)isonicotinamide] was run?
A: Its IC50 is 0.1 to 1 µM.

Q: Which IC50 does the source give for `Cc1cc(N)nc(C)c1CNC(=O)c1ccnc(Cc2ccc3nc(CN)ccc3c2)c1` [Example 46, N-((6-amino-2,4-dimethylpyridin-3-yl)methyl)-2-((2-(aminomethyl)quinolin-6-yl)methyl)isonicotinamide] here?
A: The IC50 was < 0.1 µM.

Q: How did the IC50 turn out when `Cc1cnc2ccc(Cc3cc(C(=O)NCc4ccc5c(N)noc5c4)ccn3)cc2c1` [Example 47, N-((3-aminobenzo[d]isoxazol-6-yl)methyl)-2-((3-methylquinolin-6-yl)methyl)isonicotinamide] was run?
A: Its IC50 is 1 to 10 µM.

Q: Which IC50 does the source give for `Cc1ccc2ncc(Cc3cc(C(=O)NCc4ccc5c(N)noc5c4)ccn3)cc2c1` [Example 48, N-((3-aminobenzo[d]isoxazol-6-yl)methyl)-2-((6-methylquinolin-3-yl)methyl)isonicotinamide] here?
A: The IC50 was > 10 µM.

Q: For `N#Cc1cc(Cc2cc(C(=O)NCc3cc4c(Cl)c[nH]c4cc3F)ccn2)cc2cc(Cl)cnc12` [Example 49, N-((3-chloro-6-fluoro-1H-indol-5-yl)methyl)-2-((3-chloro-8-cyanoquinolin-6-yl)methyl)isonicotinamide], which IC50 is on record?
A: Its IC50 is < 0.1 µM.

Q: For `N#Cc1cc(Cc2cc(C(=O)NCc3ccc4[nH]cc(Cl)c4c3F)ccn2)cc2cc(Cl)cnc12` [Example 51, N-((3-chloro-4-fluoro-1H-indol-5-yl)methyl)-2-((3-chloro-8-cyanoquinolin-6-yl)methyl)isonicotinamide], which IC50 is on record?
A: Its IC50 is < 0.1 µM.

Q: With `N#Cc1cc(Cc2cc(C(=O)NCc3cc4cc[nH]c4cc3F)ccn2)cc2cc(Cl)cnc12` [Example 52, 2-((3-chloro-8-cyanoquinolin-6-yl)methyl)-N-((6-fluoro-1H-indol-5-yl)methyl)isonicotinamide] as the compound, how does the IC50 read?
A: Its IC50 is < 0.1 µM.

Q: With `N#Cc1cc(Cc2cc(C(=O)NCc3n[nH]c4ccc(Cl)cc34)ccn2)cc2cc(Cl)cnc12` [Example 54, 2-(3-chloro-8-cyano-quinolin-6-ylmethyl)-N-(5-chloro-1H-indazol-3-ylmethyl)-isonicotinamide] as the compound, how does the IC50 read?
A: Its IC50 is < 0.1 µM.

Q: How did the IC50 turn out when `N#Cc1cc(Cc2cc(C(=O)NCc3cnc4[nH]cc(Cl)c4c3)ccn2)cc2cc(Cl)cnc12` [Example 55, 2-(3-chloro-8-cyano-quinolin-6-ylmethyl)-N-(3-chloro-1H-pyrrolo[2,3-b]pyridin-5-ylmethyl)-isonicotinamide] was run?
A: The IC50 was < 0.1 µM.

Q: Which IC50 does the source give for `Cc1cc(N)ncc1CNC(=O)c1ccnc(Cc2cc(C(N)=O)c3ncc(Cl)cc3c2)c1` [Example 63, 6-((4-(((6-amino-4-methylpyridin-3-yl)methyl)carbamoyl)pyridin-2-yl)methyl)-3-chloroquinoline-8-carboxamide] here?
A: Its IC50 is < 0.1 µM.

Q: With `Cc1cnc2c(C#N)cc(Cc3cc(C(=O)NCc4ccc5[nH]cc(Cl)c5c4F)ccn3)cc2c1` [Example 74, N-((3-chloro-4-fluoro-1H-indol-5-yl)methyl)-2-((8-cyano-3-methylquinolin-6-yl)methyl)isonicotinamide] as the compound, how does the IC50 read?
A: The IC50 was < 0.1 µM.

Q: How did the IC50 turn out when `Cc1cnc2c(C#N)cc(Cc3cc(C(=O)NCc4n[nH]c5ccc(Cl)cc45)ccn3)cc2c1` [Example 75, N-((5-chloro-1H-indazol-3-yl)methyl)-2-((8-cyano-3-methylquinolin-6-yl)methyl)isonicotinamide] was run?
A: The IC50 was < 0.1 µM.

Q: Which IC50 does the source give for `Cc1cnc2c(C#N)cc(Cc3cc(C(=O)NCc4cc5cc[nH]c5cc4F)ccn3)cc2c1` [Example 76, 2-((8-cyano-3-methylquinolin-6-yl)methyl)-N-((6-fluoro-1H-indol-5-yl)methyl)isonicotinamide] here?
A: Its IC50 is < 0.1 µM.

Q: With `Cc1cc(N)ncc1CNC(=O)c1ccnc(Cn2cc3cc(Cl)ccc3cc2=O)c1` [Example 85, N-((6-amino-4-methylpyridin-3-yl)methyl)-2-((7-chloro-3-oxoisoquinolin-2(3H)-yl)methyl)isonicotinamide] as the compound, how does the IC50 read?
A: Its IC50 is 0.1 to 1 µM.

Q: For `Cc1nc(N)ccc1CNC(=O)c1ccnc(Cn2cc3cc(Cl)ccc3cc2=O)c1` [Example 86, N-((6-amino-2-methylpyridin-3-yl)methyl)-2-((7-chloro-3-oxoisoquinolin-2(3H)-yl)methyl)isonicotinamide], which IC50 is on record?
A: Its IC50 is 0.1 to 1 µM.

Q: With `Cc1cc(N)nc(C)c1CNC(=O)c1ccnc(Cn2cc3cc(Cl)ccc3cc2=O)c1` [Example 87, N-((6-amino-2,4-dimethylpyridin-3-yl)methyl)-2-((7-chloro-3-oxoisoquinolin-2(3H)-yl)methyl)isonicotinamide] as the compound, how does the IC50 read?
A: The IC50 was 0.1 to 1 µM.

Q: Which IC50 does the source give for `O=C(NCc1cc2c(Cl)c[nH]c2cc1F)c1ccnc(Cn2cc3cc(Cl)ccc3cc2=O)c1` [Example 88, 2-((7-chloro-3-oxoisoquinolin-2(3H)-yl)methyl)-N-((3-chloro-6-fluoro-1H-indol-5-yl)methyl)isonicotinamide] here?
A: Its IC50 is 0.1 to 1 µM.

Q: How did the IC50 turn out when `O=C(NCc1cc2c(Cl)c[nH]c2cc1F)c1ccnc(Cc2cc(F)c3ncc(Cl)cc3c2)c1` [Example 90, N-(3-chloro-6-fluoro-1H-indol-5-ylmethyl)-2-(3-chloro-8-fluoro-quinolin-6-ylmethyl)-isonicotinamide] was run?
A: The IC50 was < 0.1 µM.
